For the assay, the system named is Hs578T complex spheroid growth, percent test/control. Briefly: Anticancer human tumor Hs578T cell line growth inhibition [AhR].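 On all read-outs here: luminescent viability signal as a proxy for spheroid growth; spheroids exposed to agents for one week after three days of growth.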 The settings on record: for viability, T/C: stronger effect = lower value. From the text: Multicellular complex tumor spheroid response to aryl hydrocarbon receptor antagonists in combination with a variety of drugs and investigational agents in selected tumor cell lines
The current study was undertaken to assess response to aryl hydrocarbon receptor antagonists in combination with standard-of-care drugs and investigational agents in solid tumor complex spheroid models. Complex spheroids include a stromal component modeled by human endothelial cells (HUVEC) and fibroblasts modeled by human mesenchymal stem cells (MSCs). The concentration ranges selected for each drug and investigational agent were based upon clinically achievable concentrations if the clinical Cmax of the agent was known.
Compounds. The drugs and investigational agents: BAY 2416964 (NSC825713), GNF351 (NSC835774), CH-223191 (NSC835775), CPI-455 (NSC825282), aza-TdCyd (NSC777586), decitabine (NSC127716), belinostat (NSC758774), entinostat (NSC756642), pevonedistat (NSC761192), tazemetostat (NSC777109), talazoparib (NSC765396), olaparib (NSC753686), selinexor (NSC780203), nedisertib (M3814, NSC802822), bortezomib (NSC756655), venetoclax (NSC766270), doxorubicin (NSC123127), elimusertib (BAY189344, NSC800525), ceralasertib (AZD6738, NSC777638), TAK-243 (NSC785004), alisertib (NSC759677), etoposide (NSC141540), topotecan (NSC609699), eribulin (NSC707389), gemcitabine (NSC613327), carboplatin (NSC241240), cisplatin (NSC119875), and SN-38 (NSC673596) were obtained from the National Cancer Institute (NCI) Developmental Therapeutics Program Chemical Repository (32). The FDA-approved anticancer drug set is available from the Developmental Therapeutics Program at https://dtp.cancer.gov/organization/dscb/obtaining/available plates.htm. […] The stock solutions were prepared in dimethyl sulfoxide (DMSO, Sigma-Aldrich, St. Louis, MO, cat. D2650), except for the platinum compounds which were prepared in saline (Quality Biological, Gaithersburg, MD, cat. 114-055-101), at 800-fold the tested concentration and stored at -70 degrees C prior to their use. All drugs and investigational agents were tested over a range starting from a high concentration at or near the clinical Cmax and decreasing in half-log increments. If the clinical Cmax for an agent had not been determined, the highest concentration tested was 10 microM (Table 1).
Cell Culture. All cells were maintained in an incubator at 37 degrees C and 5% CO2 with 95% humidity. The PDC lines were cultured according to standard operating procedures established by the NCI PDMR (https://pdmr.cancer.gov). Briefly, all PDCs were thawed and cultured in Matrigel-coated flasks prepared with a working solution of 1X Ham's F-12 nutrient mix, without supplementation (Invitrogen, Waltham, MA, cat. 11765054), 100 U/mL penicillin-streptomycin (Invitrogen, cat. 15140122), and 2.5% Matrigel (Corning Inc., Corning, NY, cat. 354248) for the first three passages. All PDCs were cultured in complete DMEM/F-12 media containing advanced DMEM/F-12 (Invitrogen, cat. 12634028), 4.9% defined fetal bovine serum, heat inactivated (HyClone Laboratories Inc., Logan, UT, cat. SH30070.03HI), 389 ng/mL hydrocortisone (Sigma-Aldrich, cat. H4001), 9.7 ng/mL human EGF recombinant protein (Invitrogen, cat. PHG0313), 23.4 microg/mL adenine (Sigma-Aldrich, cat. A2786), 97.3 U/mL penicillin-streptomycin (Invitrogen, cat. 15140122), 1.9 mM L-glutamine (Invitrogen, cat. 25030081), and 9.7 microM Y-27632 dihydrochloride (Tocris Bioscience, Bristol, United Kingdom, cat. 1254). The PDCs were cultured in complete DMEM/F12 media without 10 microM Y-27632 dihydrochloride for at least two passages prior to the screen. The established cell lines NCI-H1341 and […] were cultured in DMEM/F-12, HEPES (Invitrogen, cat. 11330032), 5% defined fetal bovine serum (HyClone Laboratories Inc., cat. SH30070.03), ITS premix universal culture supplement [insulin (5 microg/mL), transferrin (5 microg/mL), and selenious acid (5 ng/mL)] […]

Setting [1] is: curve of first compound, second compound 0.1 µM.
Where [2] appears, read: curve of first compound, second compound 0.316 µM.
[3] abbreviates: curve of first compound, second compound 1 µM.
[4] abbreviates: curve of first compound, second compound 3.16 µM.
[5] abbreviates: curve of first compound, second compound 10 µM.
The mark [6] stands for this setting: second compound 0.1 µM, first compound 0.0316 µM.
Where [7] appears, read: second compound 0.1 µM, first compound 0.1 µM.
The mark [8] stands for this setting: second compound 0.1 µM, first compound 0.316 µM.
Where [9] appears, read: second compound 0.1 µM, first compound 1 µM.
The mark [10] stands for this setting: second compound 0.316 µM, first compound 0.0316 µM.
Where [11] appears, read: second compound 0.316 µM, first compound 0.1 µM.
[12] abbreviates: second compound 0.316 µM, first compound 0.316 µM.
The mark [13] stands for this setting: second compound 0.316 µM, first compound 1 µM.
[14] abbreviates: second compound 1 µM, first compound 0.0316 µM.
Where [15] appears, read: second compound 1 µM, first compound 0.1 µM.
Setting [16] is: second compound 1 µM, first compound 0.316 µM.
The mark [17] stands for this setting: second compound 1 µM, first compound 1 µM.
[18] abbreviates: second compound 3.16 µM, first compound 0.0316 µM.
The mark [19] stands for this setting: second compound 3.16 µM, first compound 0.1 µM.
Where [20] appears, read: second compound 3.16 µM, first compound 0.316 µM.
The mark [21] stands for this setting: second compound 3.16 µM, first compound 1 µM.
Where [22] appears, read: second compound 10 µM, first compound 0.0316 µM.
Where [23] appears, read: second compound 10 µM, first compound 0.1 µM.
[24] abbreviates: second compound 10 µM, first compound 0.316 µM.
The mark [25] stands for this setting: second compound 10 µM, first compound 1 µM.

pIC50: −log10 of the molar value. Values joined by “and” are separate entries in the source; they are usually repeats but may differ in a detail not shown here. Identical values can stand only once. A value given as a limit tells only on which side of the number the result lay.

Turning to `CC(C)c1c(-c2ccccc2)nc2c(C#N)c[nH]n2c1=O`, the viability, T/C runs as follows: (compound 0.0316 µM) 103% and 106% and 97.8%; (compound 0.1 µM) 106% and 114% and 105%; (compound 0.316 µM) 102% and 101% and 106%; (compound 1 µM) 113% and 101% and 100%; (compound 3.16 µM) 102% and 116% and 98.1%; (compound 10 µM) 101% and 115% and 93.1%. For the same compound, the pIC50 (curve of compound) was less than 5.00.
Take `CC(CO)NC(=O)c1cc(-c2ccc(Cl)cc2)nn(-c2cnn(C)c2)c1=O` (configuration not stated): the viability, T/C is, setting by setting: (compound 0.316 µM) 116% [middle of 21 runs]; (compound 1 µM) 109% [middle of 20 runs]. For the setting “compound alone, run of 08/08/2022”, the negative-log IC50 (pIC50) was less than 5.00.
In the case of `CC1COCCN1c1cc(C2(S(C)(=N)=O)CC2)nc(-c2ccnc3[nH]ccc23)n1` (configuration not stated), the viability, T/C was 105% and 94.7% and 106% (compound 0.0316 µM); 108% and 91.7% and 112% (compound 0.1 µM); 119% and 99.9% and 103% (compound 0.316 µM); 105% and 89.6% and 108% (compound 1 µM); 104% and 76.3% and 81.6% (compound 3.16 µM); 60.3% and 48.3% and 55.5% (compound 10 µM). Further, the pIC50 (curve of compound) was < 5.00 and 5.03.
On to `COc1ccc([C@@H](O)c2cc(-c3ncnc4cc(N5CCOCC5)ccc34)c(F)cc2Cl)nn1`, for which the viability, T/C is 98.8% and 109% and 95.3% (compound 0.0316 µM); 106% and 104% and 89.5% (compound 0.1 µM); 90.8% and 87.6% and 99.6% (compound 0.316 µM); 90.1% and 71.2% and 78.9% (compound 1 µM); 57.8% and 44.8% and 53.4% (compound 3.16 µM); 35.3% and 31.1% and 33.9% (compound 10 µM). The pIC50 (curve of compound) is 5.32 and 5.58 and 5.44.
As to `Cc1ccccc1N=Nc1ccc(NC(=O)c2ccnn2C)c(C)c1`, the viability, T/C runs as follows: (compound 0.1 µM) 101% [middle of 20 runs]; (compound 1 µM) 102% [middle of 20 runs]; (compound 10 µM) 64.6% [middle of 20 runs]. Moreover, where the note is “compound alone, run of 08/22/2022”, the negative logarithm of the IC50 (pIC50) was less than 5.00.
Turning to `Cc1cncc(-c2nc(NCCc3c[nH]c4ccccc34)c3ncn(C(C)C)c3n2)c1`, the viability, T/C is 107% [middle of 20 runs] (compound 0.1 µM), 110% [middle of 20 runs] (compound 0.316 µM) and 6.41% [middle of 20 runs] (compound 10 µM). The IC50 (compound alone, run of 08/16/2022) is 4.32 µM [middle of 24 runs].
For the compound `COc1cccc2c1C(=O)c1c(O)c3c(c(O)c1C2=O)CC(O)(C(=O)CO)CC3OC1CC(N)C(O)C(C)O1` (configuration not stated) + CC(CO)NC(=O)c1cc(-c2ccc(Cl)cc2)nn(-c2cnn(C)c2)c1=O, the pIC50 is, setting by setting: under setting [1], 6.33; under setting [2], 6.30; under setting [3], 6.30; under setting [4], 6.40; under setting [5], 6.43. For the same compound, the viability, T/C is 96.3% under setting [6]; 86.2% under setting [7]; 64.6% under setting [8]; 23.9% under setting [9]; 3.62% (second compound 0.1 µM, first compound 3.16 µM); 3.54% (second compound 0.1 µM, first compound 10 µM). Also, the viability, T/C runs as follows: under setting [10], 78.7%; under setting [11], 84.3%; under setting [12], 66.8%; under setting [13], 24.1%; (second compound 0.316 µM, first compound 3.16 µM) 2.56%; (second compound 0.316 µM, first compound 10 µM) 2.88%. The viability, T/C by setting is: under setting [14], 92%; under setting [15], 88.1%; under setting [16], 67.8%; under setting [17], 22.7%; (second compound 1 µM, first compound 3.16 µM) 3.26%; (second compound 1 µM, first compound 10 µM) 2.93%. In addition, the viability, T/C was 88.6% under setting [18]; 91% under setting [19]; 58.1% under setting [20]; 14.6% under setting [21]; 2.55% (second compound 3.16 µM, first compound 3.16 µM); 3.04% (second compound 3.16 µM, first compound 10 µM). Also, the viability, T/C was 78.3% under setting [22]; 86.4% under setting [23]; 57.8% under setting [24]; 4.9% under setting [25]; 2.84% (second compound 10 µM, first compound 3.16 µM); 2.14% (second compound 10 µM, first compound 10 µM).
`Nc1ncn(C2CC(O)C(CO)O2)c(=O)n1` (configuration not stated) + CC(CO)NC(=O)c1cc(-c2ccc(Cl)cc2)nn(-c2cnn(C)c2)c1=O: the pIC50 by setting is: under setting [1], less than 6.00; under setting [2], less than 6.00; under setting [3], less than 6.00; under setting [4], less than 6.00; under setting [5], less than 6.00. The viability, T/C by setting is: (second compound 0.1 µM, first compound 0.00316 µM) 109%; (second compound 0.1 µM, first compound 0.01 µM) 107%; under setting [6], 118%; under setting [7], 107%; under setting [8], 103%; under setting [9], 95.5%. The viability, T/C runs as follows: (second compound 0.316 µM, first compound 0.00316 µM) 106%; (second compound 0.316 µM, first compound 0.01 µM) 114%; under setting [10], 110%; under setting [11], 114%; under setting [12], 120%; under setting [13], 109%. Also, the viability, T/C (second compound 1 µM, first compound 0.00316 µM) is 117%; the viability, T/C (second compound 1 µM, first compound 0.01 µM) is 108%; the viability, T/C under setting [14] was 103%; the viability, T/C under setting [15] was 102%; the viability, T/C under setting [16] was 107%; the viability, T/C under setting [17] was 96%. The viability, T/C (second compound 3.16 µM, first compound 0.00316 µM) is 109%; the viability, T/C (second compound 3.16 µM, first compound 0.01 µM) was 109%; the viability, T/C under setting [18] is 117%; the viability, T/C under setting [19] was 114%; the viability, T/C under setting [20] was 101%; the viability, T/C under setting [21] was 97%. In addition, the viability, T/C by setting is: (second compound 10 µM, first compound 0.00316 µM) 96.9%; (second compound 10 µM, first compound 0.01 µM) 100%; under setting [22], 105%; under setting [23], 99.6%; under setting [24], 92.9%; under setting [25], 100%.

Usually viability, T/C stands for the result in the treated group divided by that in the control group, in per cent. The pIC50 is the IC50 on a negative log10 scale, so that one unit is a factor of ten. Broadly, the IC50 is the concentration at which inhibition is half-maximal.
